Residues, ends and D or L forms follow the SMILES beside them. *: point of attachment. PhAc = O=C(Cc1ccccc1)*; Boc = CC(C)(C)OC(=O)*
Row | melting point | Structure (SMILES)
1 | 102.5 to 105 °C | COC(=O)[C@H](CC(C)C)NC(=O)[C@H](C)NC(=O)Cc1ccccc1 [Example 201, N-[N-(Phenylacetyl)-L-alaninyl]-L-leucine Methyl Ester] (HELM PEPTIDE1{[O=C(Cc1ccccc1)[*:2]].A.L.[CO[*:1]]}$$$$V2.0)
2 | 148 to 149.5 °C | COC(=O)[C@H](Cc1ccccc1)NC(=O)[C@H](C)NC(=O)Cc1ccccc1 [Example 204, N-[N-(Phenylacetyl)-L-alaninyl]-L-phenylalanine Methyl Ester]
3 | 152 to 153.5 °C | COC(=O)CNC(=O)[C@H](C)NC(=O)Cc1ccccc1 [Example 206, N-[N-(Phenylacetyl)-L-alaninyl]glycine Methyl Ester] (HELM PEPTIDE1{[O=C(Cc1ccccc1)[*:2]].A.G.[CO[*:1]]}$$$$V2.0)
4 | 112 to 115 °C | COC(=O)[C@@H](NC(=O)[C@H](C)NC(=O)Cc1ccccc1)C(C)C [Example 207, N-[N-(Phenylacetyl)-L-alaninyl]-L-valine Methyl Ester] (HELM PEPTIDE1{[O=C(Cc1ccccc1)[*:2]].A.V.[CO[*:1]]}$$$$V2.0)
5 | 120 °C | CC[C@H](NC(=O)[C@H](C)NC(=O)Cc1ccccc1)C(=O)OC [Example 208, Methyl N-[N-(Phenylacetyl)-L-alaninyl]-2-(S)-aminobutanoate] (HELM PEPTIDE1{[O=C(Cc1ccccc1)[*:2]].A.[Abu].[CO[*:1]]}$$$$V2.0)
6 | 135 to 137 °C | CCC[C@H](NC(=O)[C@H](C)NC(=O)Cc1ccccc1)C(=O)OC [Example 209, Methyl N-[N-(Phenylacetyl)-L-alaninyl]-2-(S)-aminopentanoate] (HELM PEPTIDE1{[O=C(Cc1ccccc1)[*:2]].A.[Nva].[CO[*:1]]}$$$$V2.0)
7 | 114 to 118 °C | COC(=O)C1CCCCN1C(=O)[C@H](C)NC(=O)Cc1cc(F)cc(F)c1 (stereo partly drawn) [Example 218, Methyl 1-[N-(3,5-Difluorophenylacetyl)-L-alaninyl]piperidine-2-carboxylate]
8 | 234.4 °C | COC(=O)[C@@H](NC(=O)CC1CCCC[C@@H]1NC(=O)Cc1cc(F)cc(F)c1)c1ccccc1 (stereo partly drawn) [Example 225, N-[N-(3,5-Difluorophenylacetyl)-2-(S)-aminocyclohexylacetyl]-L-phenylglycine Methyl Ester]
9 | 231.4 °C | O=C(Cc1cc(F)cc(F)c1)N[C@H](C(=O)N[C@H](CO)c1ccccc1)c1ccccc1 [Example 245, N-[N-(3,5-Difluorophenylacetyl)-L-phenylglycinyl]-L-phenylglycinol]
10 | 202.5 °C | O=C(CC1CC1)N[C@H](C(=O)N[C@H](CO)c1ccccc1)c1ccccc1 [Example 246, N-[N-(Cyclopropaneacetyl)-L-phenylglycinyl]-L-phenylglycinol]
11 | 201.4 °C | O=C(CC1CCCC1)N[C@H](C(=O)N[C@H](CO)c1ccccc1)c1ccccc1 [Example 247, N-[N-(Cyclopentaneacetyl)-L-phenylglycinyl]-L-phenylglycinol]
12 | 188 to 189.5 °C | CCCC[C@H](NC(=O)Cc1cc(F)cc(F)c1)C(=O)N[C@H](C(=O)OC)c1ccccc1 [Example 252, N-[N-(3,5-Difluorophenylacetyl)-L-norleucinyl]-L-phenylglycine Methyl Ester]
13 | 204 to 205 °C | CCC[C@H](NC(=O)Cc1cc(F)cc(F)c1)C(=O)N[C@H](C(=O)OC)c1ccccc1 [Example 253, N-[N-(3,5-Difluorophenylacetyl)-L-norvalinyl]-L-phenylglycine Methyl Ester]
14 | 176.4 °C | COC(=O)[C@@H](NC(=O)[C@@H](NC(=O)Cc1cc(F)cc(F)c1)C(C)(C)C)c1ccccc1 [Example 254, N-[N-(3,5-Difluorophenylacetyl)-L-tert-leucinyl]-L-phenylglycine Methyl Ester]
15 | 228.8 °C | CC[C@H](C)[C@H](NC(=O)Cc1cc(F)cc(F)c1)C(=O)N[C@H](C(=O)OC)c1ccccc1 [Example 255, N-[N-(3,5-Difluorophenylacetyl)-L-isoleucinyl]-L-phenylglycine Methyl Ester]
16 | 225 to 226.5 °C | COC(=O)[C@@H](NC(=O)[C@@H](NC(=O)Cc1cc(F)cc(F)c1)C1CC1)c1ccccc1 [Example 257, N-[N-(3,5-Difluorophenylacetyl)-(S)-2-amino-2-(cyclopropyl)acetyl]-L-phenylglycine Methyl Ester]
17 | 229.3 °C | COC(=O)[C@@H](NC(=O)[C@@H](NC(=O)Cc1cc(F)cc(F)c1)c1ccsc1)c1ccccc1 [Example 258, N-[N-(3,5-Difluorophenylacetyl)-(S)-2-amino-2-(thien-3-yl)acetyl]-L-phenylglycine Methyl Ester]
18 | 230.8 °C | COC(=O)[C@@H](NC(=O)[C@H](NC(=O)Cc1cc(F)cc(F)c1)c1cccs1)c1ccccc1 [Example 259, N-[N-(3,5-Difluorophenylacetyl)-(S)-2-amino-2-(thien-2-yl)acetyl]-L-phenylglycine Methyl Ester]
19 | 185 °C | CC(C)(C)OC(=O)[C@@H](NC(=O)[C@@H](NC(=O)Cc1cc(F)cc(F)c1)c1ccccc1)c1ccccc1 [Example 263, N-[N-(3,5-Difluorophenylacetyl)-L-phenylglycinyl]-L-phenylglycine tert-Butyl Ester]
20 | 187.5 °C | CC(C)(C)OC(=O)[C@@H](NC(=O)[C@@H](NC(=O)CC1CC1)c1ccccc1)c1ccccc1 [Example 264, N-[N-(Cyclopropylacetyl)-L-phenylglycinyl]-L-phenylglycine tert-Butyl Ester]
21 | 190.8 °C | CC(C)(C)OC(=O)[C@@H](NC(=O)[C@@H](NC(=O)CC1CCCC1)c1ccccc1)c1ccccc1 [Example 265, N-[N-(Cyclopentylacetyl)-L-phenylglycinyl]-L-phenylglycine tert-Butyl Ester]
22 | 158.5 to 160.5 °C | CCCC[C@H](NC(=O)[C@H](C)NC(=O)Cc1cc(F)cc(F)c1)C(=O)O [Example 327, N-[N-(3,5-Difluorophenylacetyl)-L-alaninyl]-L-norleucine]
23 | 133 to 138 °C | C[C@H](NC(=O)CC1CCCC1)C(=O)N[C@H](C(=O)OC(C)(C)C)c1ccccc1 [Example 328, N-[N-(Cyclopentaneacetyl)-L-alaninyl]-L-phenylglycine tert-Butyl Ester]

Row | Structure (SMILES) | melting point
24 | COC(=O)[C@H](CCCCNC(=O)OC(C)(C)C)NC(=O)[C@H](C)NC(=O)Cc1ccccc1 [Example 205, N-[N-(Phenylacetyl)-L-alaninyl]-Nε-(tert-butoxycarbonyl)-L-lysine Methyl Ester] (PhAc-Ala-Lys(Boc)-OMe) | 119 to 121 °C
